Experiment [1] relates to PKA (phosphorylation of VASP on Serine 157). Nature of the experiment: Cellular potency assay: P-VASP(157) HTRF in Forskolin-stimulated Huh7 cells. The format is cell-based. The conditions noted are these: Homo sapiens, Huh-7, 4 hours compound, 5 μM Forskolin 30 minutes, read-out: Phos VASP(S157) IC50. An excerpt: PKA directly phosphorylate VASP on Serine 157. Phosphorylation of VASP on Serine 157. P-VASP(157) was therefore used as a readout of PKA cellular activity. P-VASP(157) was detected with a HTRF assay, which is based on a TR-FRET sandwich immunoassay-based format comprising two specific anti-VASP antibodies following the manufactors protocol (Cisbio, Catalog No. 63ADK066PEH). PKA was activated in the assay by the addition of Forskolin (Sigma-Aldrich, Catalog No. F3917).
Dose response in Forskolin-stimulated human Huh7 cells was measured as follows. Briefly, Huh7 cells were plated at a density of 2×10^4 cells per well in a 384-well opti-well cell culture plate in 15 μl of serum- and phenol-free Dulbecco's Modified Eagle Medium (DMEM, Gibco Catalog No. 21063-029), and incubated for over night at 37° C., 5% CO2. The next day, 3 μl of a dosed concentration series of test compound (0.24%) DMSO final concentration) was added to the wells, and the cells were incubated for an additional 4 hours at 37° C., 5% CO2. 2 μl of Forskolin was added at a final concentration of 5 μM and the plates were incubated for 30 minutes at 37° C., 5% CO2. 5 μl of lysis buffer containing 1% HALT protease cocktail inhibitors (ThermoFisher, Catalog No. 78430), was added to the cells and the mixture was incubated under gentle shaking for 30 min at room temperature. 10 μl of this lysate was transferred to a 384-well proxi plate and 2.5 μL of the premixed antibody solution was added. An antibody solution was prepared by combining phopho-VASP cryptate antibody and phospho-VASP d2 antibody, at twenty-fold dilution into a buffer solution following the manufactors' protocol. The lysate and antibody mixture was incubated for either 3 h at room temperature or overnight at 4° C. The fluorescence emission at two different wavelengths (665 nm and 620 nm) was read on an EnVision instrument.

The next experiment deals with T1, PRKACA (Homo sapiens, UniProt P17612).
T1 construct: purchased Millipore 539482
Nature of the experiment: PRKACA assay at Km (EZ Reader 2 electrophoretic mobility shift). The format is biochemical. The following applies: 5 μM ATP (Km), 1 μM Kemptide, 90 minutes at 25 C; read-out: Enz PRKACA IC50. Here is the method:
A Perkin Elmer electrophoretic mobility shift platform (the EZ Reader 2) was used to assess the activity of test compounds against a kinase of interest. Fluorescently labeled substrate peptide was incubated in the presence of kinase, ATP, and the test compound, so that a portion of the peptide was phosphorylated by the enzyme. At the end of the reaction, the mix of phosphorylated (product) and non-phosphorylated (substrate) peptide containing solutions was passed through the microfluidic system of the Perkin Elmer EZ Reader 2 under an applied potential difference. The presence of the phosphate group on the product peptide provided a difference in mass and charge between those of the substrate peptide, resulting in a separation of the substrate and product pools in the sample. As the stopped solutions passed under the instrument's LED light the phosphorylated and un-phosphorylated fluorophore bound peptides were detected and resolved as separate peaks. The ratio between these peaks therefore reflected the test compound's impact on the kinase at that concentration in that well under those conditions.
PRKACA assay at Km: In each well of a 384-well plate, 0.007 ng/ul (0.18 nM) of PRKACA enzyme (Millipore: 539482) was incubated in a total of 12.5 μl of buffer (100 mM HEPES pH 7.5, 0.015% Brij 35, 10 mM MgCl2, 1 mM DTT) with 1 μM Kemptide peptide substrate (5-FAM-LRRASLG) (Anaspec 29933) and 5 μM ATP at 25 C for 90 minutes in the presence or absence of a dosed concentration series of test compounds (1% DMSO final concentration). The reaction was stopped by the addition of 80 μl of Stop buffer (100 mM HEPES pH 7.5, 0.015% Brij 35, 35 mM EDTA and 0.2% of Coating Reagent 3 (Perkin Elmer)). The plate was then read on the EZ Reader 2 (protocol settings: −2.0 psi, upstream voltage −700, downstream voltage −2700, post sample sip 60 seconds). Data was normalized to 0% and 100% inhibition controls and the IC50 calculated using a 4-parameter fit using GraphPad Prism.
For orientation: A gel shift assay detects complexes by their altered migration in electrophoresis.

Some results are limits rather than exact numbers.

As a reminder, the IC50 is the concentration needed to halve the response being measured.

Consider `O=C(N[C@H]1CCc2ccc(F)cc21)c1ccc(-c2ccnc3[nH]ccc23)nc1` [Compound 105, N-[(1S)-6-Fluoro-2,3-dihydro-1H-inden-1-yl]-6-{1H-pyrrolo[2,3-b]pyridin-4-yl}pyridine-3-carboxamide], for which the half-inhibitory concentration (IC50) was 0.01 to 100 nM in experiment [1] and 1.01 to 5 nM on PRKACA.

Consider `O=C(N[C@@H]1c2c(Cl)cccc2C[C@H]1N1C[C@@H](O)[C@H](F)C1)c1ccc(-c2ccnc3[nH]ccc23)nc1` [Compound 184], for which the IC50 on PRKACA lay in the range of 1.01 to 5 nM.

Take `C[C@@H]1c2cccc(F)c2[C@@H](NC(=O)c2ccc(-c3ccnc4[nH]ccc34)nc2)[C@H]1O` (single isomer, unassigned) [Compound 122]: the IC50 in experiment [1] is less than 50 nM; at PRKACA it was not above 1 nM.

Take `Cc1cccc2c1[C@@H](NC(=O)c1ccc(-c3ccnc4[nH]ccc34)nc1)[C@H](N1CCCC1)C2` [Compound 153]: the IC50 in experiment [1] was 0.01 to 100 nM; on PRKACA, not above 1 nM.

Consider `O=C(N[C@H]1C[C@@H](O)c2cc(C(F)F)cc(F)c21)c1ccc(-c2ccnc3[nH]ccc23)nc1` [Compound 156], for which the IC50 was less than 50 nM in experiment [1] and not above 1 nM on PRKACA.

For the compound `O=C(N[C@@H]1c2c(Cl)cccc2C[C@H]1N1CC[C@H](F)C1)c1ccc(-c2ccnc3[nH]ccc23)nc1` [Compound 178], the IC50 was less than 50 nM in experiment [1] and not above 1 nM at PRKACA.

With `O=C(N[C@@H]1c2c(F)cccc2OC[C@@H]1O)c1ccc(-c2ccnc3[nH]ccc23)cc1` [Compound 124], the values for the IC50 (in experiment [1]; at PRKACA) were less than 50 nM and not above 1 nM, respectively.

For the compound `O=C(N[C@@H]1c2ccccc2C[C@H]1N1CCC1)c1ccc(-c2ccnc3[nH]ccc23)nc1` [Compound 133], the results for the IC50 (in experiment [1]; on PRKACA) were 0.01 to 100 nM and 1.01 to 5 nM, respectively.

With `CN(C)C(=O)[C@H]1N([C@@H]2Cc3cccc(Cl)c3[C@H]2NC(=O)c2ccc(-c3ccnc4[nH]ccc34)nc2)CC1(C)C` [Compound 192, N-[(1R,2R)-7-Chloro-2-[(2S)-2-(dimethylcarbamoyl)-3,3-dimethylazetidin-1-yl]-2,3-dihydro-1H-inden-1-yl]-6-{1H-pyrrolo[2,3-b]pyridin-4-yl}pyridine-3-carboxamide], the IC50 in experiment [1] was less than 50 nM; at PRKACA, not above 1 nM.

For `Cc1c[nH]c2nccc(-c3ccc(C(=O)N[C@@H]4c5c(Cl)cccc5C[C@H]4N4CCCC4)cn3)c12` [Compound 174], the IC50 in experiment [1] is less than 50 nM; on PRKACA, not above 1 nM.

Turning to `C[C@H]1Oc2ccc(F)c(F)c2[C@@H](NC(=O)c2ccc(-c3ccnc4[nH]ccc34)nc2)[C@@H]1O` [Compound 149], the IC50 in experiment [1] is less than 50 nM; at PRKACA it was not above 1 nM.

Consider `O=C(N[C@@H]1c2ccccc2C[C@H]1N1CC[C@H](F)C1)c1ccc(-c2ccnc3[nH]ccc23)nc1` [Compound 158], for which the figures for the IC50 (in experiment [1]; at PRKACA) were 0.01 to 100 nM and not above 1 nM, respectively.

With `Cc1c[nH]c2nccc(-c3ccc(C(=O)N[C@@H]4c5c(F)cccc5C[C@H]4N4CC(C)C4)cn3)c12` [Compound 166], the IC50 was 0.01 to 100 nM in experiment [1] and not above 1 nM at PRKACA.

Turning to `CCN(CC)[C@@H]1Cc2ccccc2[C@H]1NC(=O)c1ccc(-c2ccnc3[nH]ccc23)nc1` [Compound 147], the IC50 was less than 50 nM in experiment [1] and 1.01 to 5 nM on PRKACA.

In the case of `O=C(N[C@@H]1c2c(F)cc(C(F)F)cc2OC[C@@H]1O)c1ccc(-c2ccnc3[nH]ccc23)nc1` [Compound 164], the IC50 in experiment [1] was less than 50 nM; on PRKACA, not above 1 nM.

`O=C(N[C@H]1c2c(ccc(F)c2F)OC[C@H]1O)c1ccc(-c2ccnc3[nH]ccc23)nc1` (stereo in doubt) [Compound 140, N-[(3S,4S)-5,6-Difluoro-3-hydroxy-3,4-dihydro-2H-1-benzopyran-4-yl]-6-{1H-pyrrolo[2,3-b]pyridin-4-yl}pyridine-3-carboxamide]: the concentration for half-maximal inhibition (IC50) in experiment [1] is 0.01 to 100 nM; at PRKACA it was not above 1 nM.

Consider `O=C(N[C@H]1C[C@H](O)c2cc(C(F)F)cc(F)c21)c1ccc(-c2ccnc3[nH]ccc23)nc1` [Compound 155], for which the IC50 was less than 50 nM in experiment [1] and not above 1 nM at PRKACA.

For the origin of these results see US12583856B2, “Inhibitors of protein kinase A” (Blueprint Medicines Corporation, priority 2021, dated 2026).
